Results: ChEMBL document CHEMBL1201862, “PubChem BioAssay data set” (2004)
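Where inhibition never reached the appropriate level, the endpoint shown equals the highest concentration tested. Otherwise, values were interpolated linearly from a five-concentration, 48-hour dose response in 96-well plates. GI50 is the concentration that inhibits growth by half.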 The source made the active and inactive calls. No stated cut-off is given here; in the data, active = GI50 up to about 1.1 µM and inactive = higher.

Assays:
Assay in all cases: growth of human tumour cells (NCI), 48 h
[1] = system: ACHN
[2] = system: EKVX
[3] = system: K562
[4] = system: LOX IMVI
[5] = system: MOLT-4
[6] = system: OVCAR-4
[7] = system: OVCAR-8
[8] = system: RXF 393
[9] = system: SK-OV-3
[10] = system: SN12C
[11] = system: SNB-75
[12] = system: U-251
[13] = system: UACC-257
[14] = system: SK-MEL-28
[15] = system: SR

Measured: GI50

COC(=O)C1=C(C[S+]([O-])c2ccccc2[N+](=O)[O-])ON(C)C1c1ccccc1 (configuration not stated)
inactive: [1] 31.2 µM | [2] 55.6 µM | [3] 22.4 µM | [4] 13.3 µM | [5] 31 µM | [6] 66.7 µM | [7] 21.3 µM | [8] 25.4 µM | [9] > 100 µM | [10] 19 µM | [11] 24.8 µM | [12] 34.4 µM | [13] 35.2 µM

O=C(CCc1nnc2s/c(=C\c3ccccc3Cl)c(=O)n12)Nc1cc(Cl)ccc1Cl
inactive: [1] > 100 µM | [2] > 100 µM | [3] > 100 µM | [4] > 100 µM | [5] > 100 µM | [6] > 100 µM | [7] > 100 µM | [8] > 100 µM | [14] > 100 µM | [9] > 100 µM | [10] > 100 µM | [15] > 100 µM | [12] > 100 µM | [13] > 100 µM

[O-]/N=[N+](/[O-])C1CCCCC1=[N+]1CCOCC1 (configuration not stated)
inactive: [1] > 100 µM | [2] > 100 µM | [3] > 100 µM | [5] > 100 µM | [6] > 100 µM | [7] > 100 µM | [14] > 100 µM | [9] > 100 µM | [10] > 100 µM | [15] > 100 µM | [12] > 100 µM | [13] > 100 µM

COc1ccc2[nH]c3c(c2c1)[C@H]1CCC(C(C)(C)C)C[C@H]1[C@H]1C(=O)N(c2ccccc2)C(=O)[C@@H]31 (some centres not stated)
inactive: [1] 4.17 µM | [2] 32.7 µM | [3] 20.6 µM | [4] 20.7 µM | [5] 20.9 µM | [6] 3.3 µM | [7] 6.84 µM | [8] 9.42 µM | [14] 44.3 µM | [9] 15.6 µM | [10] 11.9 µM | [11] 5.97 µM | [12] 6.14 µM | [13] 24.2 µM

CN1c2ccccc2N(C)C23N(C)c4ccccc4N(C)C12N(C)c1ccccc1N3C (configuration not stated)
inactive: [1] > 100 µM | [2] > 100 µM | [3] > 100 µM | [4] > 100 µM | [5] > 100 µM | [7] > 100 µM | [8] > 100 µM | [14] > 100 µM | [10] > 100 µM | [11] 35.6 µM | [12] > 100 µM | [13] > 100 µM

CC(C)OP(=O)(OC(C)C)/C(=N/Nc1ccc([N+](=O)[O-])cc1)NN
inactive: [1] 98.6 µM | [2] 61.9 µM | [3] 65.9 µM | [4] > 100 µM | [5] 61.9 µM | [6] > 100 µM | [7] > 100 µM | [14] > 100 µM | [10] > 100 µM | [11] 83.2 µM | [15] > 100 µM | [12] > 100 µM | [13] 24.9 µM

Cc1ccc(C2C(Cl)C(=O)N2NC(=O)c2ccc(N)cc2)cc1 (configuration not stated)
inactive: [1] 31.9 µM | [2] 28.8 µM | [3] 22.5 µM | [4] 11.2 µM | [5] 11.4 µM | [6] 29 µM | [7] 14.4 µM | [14] 12.4 µM | [9] 20.1 µM | [10] 22.7 µM | [11] 47.6 µM | [12] 14.6 µM | [13] 24.3 µM

CN1CCc2cc(O)c3cc2C1Cc1ccc(cc1)Oc1cc(ccc1O)CC1c2c(cc4c(c2O3)OCO4)CCN1C (configuration not stated)
inactive: [1] 28.7 µM | [2] 18.1 µM | [3] 17.2 µM | [5] 24.3 µM | [6] 28.8 µM | [7] 19.8 µM | [8] 11.2 µM | [14] 21.3 µM | [10] 32.9 µM | [11] 13.4 µM | [15] 28.8 µM | [12] 30.1 µM

Cc1ccc(NCC2(/N=C/c3ccccc3)OC(CO)C(O)C2O)cc1 (configuration not stated)
inactive: [1] 74.3 µM | [3] 27.9 µM | [5] 40.1 µM | [6] 60.1 µM | [7] > 100 µM | [14] 62.5 µM | [11] 26.2 µM | [15] 27.1 µM | [12] 24.2 µM | [13] > 100 µM

CC(=O)c1sc(Nc2nnc(-c3ccc(-c4nnc(Nc5nc(C)c(C(C)=O)s5)o4)cc3)o2)nc1C
inactive: [1] > 100 µM | [2] > 100 µM | [3] > 100 µM | [4] > 100 µM | [5] > 100 µM | [6] > 100 µM | [7] > 100 µM | [8] > 100 µM | [14] > 100 µM | [9] > 10 µM | [10] > 100 µM | [15] > 100 µM | [12] > 100 µM | [13] > 100 µM

O=C(CC1(O)C(=O)Nc2ccc(Br)cc21)c1cccc([N+](=O)[O-])c1 (configuration not stated)
inactive: [1] 60.5 µM | [2] 40.7 µM | [3] 20.6 µM | [4] 32.4 µM | [5] 24.9 µM | [6] 23.1 µM | [7] 35.5 µM | [8] 23.8 µM | [14] 35.8 µM | [9] > 100 µM | [10] > 100 µM | [11] 26.7 µM | [12] > 100 µM | [13] 27.9 µM

CCC12CCC(O)C1N(C)CCC2Sc1ccccc1 (configuration not stated)
inactive: [1] > 100 µM | [2] > 100 µM | [3] 37.4 µM | [4] > 100 µM | [5] 28.5 µM | [6] > 100 µM | [7] > 100 µM | [8] > 100 µM | [14] 75.3 µM | [9] > 100 µM | [10] > 100 µM | [11] 24.8 µM | [12] 78.2 µM | [13] 61.2 µM

O=C(c1cc2ccccc2[nH]1)C(O)(c1cc2ccccc2[nH]1)c1cc2ccccc2[nH]1
inactive: [1] > 246 µM | [2] > 246 µM | [3] > 246 µM | [4] > 246 µM | [5] > 246 µM | [7] > 246 µM | [8] > 246 µM | [14] > 246 µM | [9] > 246 µM | [10] > 246 µM | [15] > 246 µM | [12] > 246 µM | [13] > 246 µM

CNc1ccc2ncccc2c1[N+](=O)[O-]
inactive: [1] > 100 µM | [2] > 100 µM | [3] > 100 µM | [4] > 100 µM | [5] > 100 µM | [6] > 100 µM | [7] > 100 µM | [8] > 100 µM | [14] > 100 µM | [10] > 100 µM | [11] > 100 µM | [15] > 100 µM | [13] > 100 µM

Nc1ccn(CC(CO)CC(c2ccccc2)P(=O)(O)O)c(=O)n1 (configuration not stated)
inactive: [1] > 100 µM | [2] > 100 µM | [3] > 100 µM | [4] > 100 µM | [5] > 100 µM | [7] > 100 µM | [8] > 100 µM | [14] > 100 µM | [9] > 100 µM | [10] > 100 µM | [13] > 100 µM
